Like-named read-outs stand apart in the source and are kept apart here.
Assays:
Assay in all cases: sirtuin deacetylase inhibition assay, % inhibition at […] ([…] at […])
Type in all cases: biochemical
SIRT2 [1] = molecular target: T1, SIRT2 (Homo sapiens, UniProt Q8IXJ6)
T1 sequence (Q8IXJ6 2-389): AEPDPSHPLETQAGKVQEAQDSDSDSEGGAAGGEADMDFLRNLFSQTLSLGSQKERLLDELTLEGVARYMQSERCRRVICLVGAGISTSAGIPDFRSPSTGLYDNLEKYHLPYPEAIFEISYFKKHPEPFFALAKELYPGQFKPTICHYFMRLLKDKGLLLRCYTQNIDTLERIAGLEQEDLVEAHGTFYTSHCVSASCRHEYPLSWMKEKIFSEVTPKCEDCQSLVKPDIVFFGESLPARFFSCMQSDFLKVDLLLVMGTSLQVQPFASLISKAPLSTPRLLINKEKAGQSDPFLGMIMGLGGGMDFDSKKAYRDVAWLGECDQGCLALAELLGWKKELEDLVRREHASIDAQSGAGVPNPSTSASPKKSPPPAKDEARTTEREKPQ

SIRT1 [2] = molecular target: T2, SIRT1 (Homo sapiens, UniProt Q96EB6)
T2 sequence (Q96EB6 2-747): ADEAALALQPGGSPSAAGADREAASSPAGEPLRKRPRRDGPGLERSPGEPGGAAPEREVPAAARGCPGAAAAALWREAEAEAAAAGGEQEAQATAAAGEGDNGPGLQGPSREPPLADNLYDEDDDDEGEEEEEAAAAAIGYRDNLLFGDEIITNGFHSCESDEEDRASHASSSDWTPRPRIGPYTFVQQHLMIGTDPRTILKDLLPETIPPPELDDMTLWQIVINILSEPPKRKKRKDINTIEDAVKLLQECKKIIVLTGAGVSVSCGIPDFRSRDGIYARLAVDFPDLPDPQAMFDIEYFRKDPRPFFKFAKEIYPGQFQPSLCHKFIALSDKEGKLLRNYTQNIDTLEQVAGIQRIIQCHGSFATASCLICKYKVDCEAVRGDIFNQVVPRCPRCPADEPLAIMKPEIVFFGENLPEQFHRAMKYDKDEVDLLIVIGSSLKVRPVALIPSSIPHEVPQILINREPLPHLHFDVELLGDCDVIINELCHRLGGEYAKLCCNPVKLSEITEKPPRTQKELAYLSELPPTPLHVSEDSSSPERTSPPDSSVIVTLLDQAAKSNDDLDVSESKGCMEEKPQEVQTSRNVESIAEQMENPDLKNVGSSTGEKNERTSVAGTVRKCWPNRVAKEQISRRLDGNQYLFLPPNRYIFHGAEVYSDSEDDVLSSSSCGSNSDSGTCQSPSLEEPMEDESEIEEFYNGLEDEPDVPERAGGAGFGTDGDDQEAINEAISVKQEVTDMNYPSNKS

SIRT2 [3] = molecular target: T1, SIRT2; remark: listed apart in the source
SIRT1 [4] = molecular target: T2, SIRT1; remark: listed apart in the source

CN(C)c1ccc(C=NNC(=O)/C=C/C=C/c2ccc3c(c2)OCO3)cc1 (mixture of isomers) [5d, (2E,4E)-5-(Benzo[d][1,3]dioxol-5-yl)-N′-((E/Z)-4-(dimethylamino)-benzylidene)penta-2,4-dienehydrazide]
inhibition at 50 µM (SIRT2 [1]): 70 ± 3%
inhibition at 50 µM (SIRT1 [2]): 48 ± 3%

O=C(/C=C/C=C/c1ccc2c(c1)OCO2)NN=Cc1ccc(O)cc1 [5a, (2E,4E)-5-(Benzo[d][1,3]dioxol-5-yl)-N′-((E,Z)-4-hydroxybenzylidene)penta-2,4-dienehydrazide]
inhibition at 50 µM (SIRT2 [3]): 72 ± 3%

O=C(/C=C/C=C/c1ccc2c(c1)OCO2)N/N=C/c1ccc(O)cc1O [5b, (2E,4E)-5-(Benzo[d][1,3]dioxol-5-yl)-N′-((E)-2,4-dihydroxybenzylidene)penta-2,4-dienehydrazide]
inhibition at 50 µM (SIRT1 [4]): 45 ± 3%

Source: publication PMC9037111, “Structure-based design, synthesis, and biological evaluation of novel piperine–resveratrol hybrids as antiproliferative agents targeting SIRT-2” (RSC Advances, 2021)
